Experimental data from patent US20110144014A1, “CYTOKINE RECEPTOR MODULATORS AND USES THEREOF” (CENTRE HOSPITALIER UNIVERSITAIRE SAINTE-JUSTINE, priority 2005, published 2011).
pIC50: −log10 of the molar value.

Experiments:
IL-1R = target: T1, IL-1R (Homo sapiens, UniProt P14778); assay: IL-1R antagonist activity, structure vs. activity text, assay not stated
T1 sequence (P14778 18-569): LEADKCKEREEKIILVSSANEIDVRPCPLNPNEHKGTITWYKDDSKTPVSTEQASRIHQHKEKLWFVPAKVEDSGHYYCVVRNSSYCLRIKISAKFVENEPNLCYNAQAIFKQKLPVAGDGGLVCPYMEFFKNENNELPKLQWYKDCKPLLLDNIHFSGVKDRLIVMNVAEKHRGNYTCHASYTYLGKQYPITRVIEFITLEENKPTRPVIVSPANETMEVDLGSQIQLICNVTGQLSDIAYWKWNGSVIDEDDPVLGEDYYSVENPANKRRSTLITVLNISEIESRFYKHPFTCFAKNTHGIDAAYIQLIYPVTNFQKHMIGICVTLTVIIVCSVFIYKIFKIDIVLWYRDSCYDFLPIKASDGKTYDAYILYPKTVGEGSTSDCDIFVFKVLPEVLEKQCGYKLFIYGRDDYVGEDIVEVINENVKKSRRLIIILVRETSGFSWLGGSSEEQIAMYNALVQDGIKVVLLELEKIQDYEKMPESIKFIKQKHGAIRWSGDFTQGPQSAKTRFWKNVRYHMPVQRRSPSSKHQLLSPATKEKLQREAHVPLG
T1 sequence (Q9NPH3 21-570 partner): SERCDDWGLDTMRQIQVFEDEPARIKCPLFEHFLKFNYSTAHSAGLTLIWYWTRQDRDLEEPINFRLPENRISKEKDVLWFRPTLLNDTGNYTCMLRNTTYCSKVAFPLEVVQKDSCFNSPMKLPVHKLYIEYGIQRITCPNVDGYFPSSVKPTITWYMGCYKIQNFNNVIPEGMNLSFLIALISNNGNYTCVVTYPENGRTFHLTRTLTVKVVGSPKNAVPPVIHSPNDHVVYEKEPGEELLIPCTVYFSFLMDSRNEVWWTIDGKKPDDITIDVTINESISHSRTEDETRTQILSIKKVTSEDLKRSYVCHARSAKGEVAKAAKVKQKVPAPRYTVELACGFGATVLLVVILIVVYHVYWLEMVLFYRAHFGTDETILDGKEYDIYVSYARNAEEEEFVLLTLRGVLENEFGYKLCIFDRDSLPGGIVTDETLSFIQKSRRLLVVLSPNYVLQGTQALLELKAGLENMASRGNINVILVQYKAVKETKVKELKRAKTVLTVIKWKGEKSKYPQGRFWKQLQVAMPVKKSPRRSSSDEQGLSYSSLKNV

IL-1R/IL-1RacP = assay: IL-1-induced PGE2 synthesis in endothelial cells; format: cell-based, porcine
Procedure: Efficiencies and inhibitory activities of the mutated peptides were determined by measuring the inhibition of IL-1-induced PGE2 synthesis. […] All peptides were tested at concentration 10^−6M.
The arginine of API-101.10 (SEQ ID NO: 10) was replaced by citrulline—to change from a guanidine to a urea group near the N-terminal. Other mutations (e.g. E to Q in API-101.102 and API-101.103) and a truncated peptide at the C-terminal (API-101.108) were also performed to improve the potency and the efficacy of the peptides. Measurement of PGE2 was performed with piglet brain microvessel endothelial cells and WI-38 human fibroblasts. Some of the mutations were advantageous and gave major increases in potency.
IL-1-induced PGE2 synthesis assay on endothelial cells was used as a screening assay for the peptidomimetics.

CC(C)C[C@@H](NC(=O)[C@@H](CCC(=O)O)NC(=O)[C@H]1CC[C@H]2CC[C@@H](NC(=O)[C@@H](Cc3ccc(O)cc3)NC(=O)[C@H](N)CCCNC(=N)N)C(=O)N21)C(=O)N[C@H](C)C(N)=O [API-101.110, RY(I^2aa)ELA]
pIC50 (IL-1R): 11.00
efficacy relative to API-101.107 (IL-1R/IL-1RacP): twice the efficacy
potency relative to API-101.107 (IL-1R/IL-1RacP): 10 fold
